# Test results: patent EP0211584A1, “Antihypertensive agents” (AMERICAN HOME PRODUCTS CORPORATION, priority 1985, dated 1987)
# Read-outs that look alike come from different tables or passages of the source.
# Columns and labels:
# [1] = system: spontaneously hypertensive rats; assay: Hypotensive effect: systolic blood pressure of spontaneously hypertensive rats; type: in vivo; details: mmHg per method
# Description: The hypotensive in vivo effect of the compounds of this invention was determined by measuring changes in the systolic blood pressure of spontaneously hypertensive rats with a Decker Caudal Plethysmograph. The compound being tested was administered to a group of 4 rats and their systolic pressure was determined prior to and at 1.5 and 4 hours after compound administration. Initial testing was done by oral administration of the compound. Results (mmHg) are expressed as decreases in systolic blood pressure.
# (§1) The following examples illustrate the preparation of a representative number of compounds of this invention. After each example, the Ca+2 antagonist activity of the compound is presented in terms of percent relaxation of aortic tissue (P.R.) at 10-^5M concentration. […] Inhibition of super- precipitation (Antag. of Actin-Myosin interaction) is expressed as percent inhibition (mean ± standard error of the mean for at least 3 separate experiments) at a compound concentration. In the same manner, inhibition of myosin light chain phosphorylation (Antag. of MLCP) is expressed as a percent inhibition at a compound concentration. Similarly, the antihypertensive activity is reported in terms of millimetres mercury (mmHg) systolic blood pressure (B.P.) reduction at the stated time post 50 mg/kg oral dosing or other dosing as indicated.
# [2] = biological target: Ca^+2-calmodulin dependent myosin light chain phosphorylation (Bos taurus, UniProt Q28824); assay: Inhibition of myosin light chain phosphorylation (MLCP), Silver et al.; type: biochemical; details: read-out: Antag. of MLCP (percent inhibition of myosin light chain phosphorylation)
# Description: The data reported herein was obtained at a six minute time-point rather than the 1.5, 5 and 12 minute time points indicated in the superprecipita- tion assay of the Silver et al paper.
# as §1
# [3] = system: rabbit aortic smooth muscle; assay: Ca+2 antagonism: relaxation of KCl-depolarized rabbit aortic smooth muscle strips; details: 20 min; for inhibition at 10 µM: Oryctolagus cuniculus, read-out: P.R. (percent relaxation of aortic tissue)
# Description: The composition of PSS was as follows (mM): NaCl 112,KCI 5, NaHCO3 25 KH2PO4 1, MgSO4 1.2, CaCl2 2.5, dextrose 10. The lower end of each tissue strip was attached to a fixed post and the upper end to a Statham UC-4 transducer. Changes in force development were recorded on a Beckman Dynograph Polygraphic Recorder.
# Following equilibration, the muscles were contracted in a depolarizing solution of PSS in which 100mM KCI was substituted for an equimolar concentration of NaCI. Following attainment of steady- state isometric force (20 min.), the test compound was added to afford a final concentration of 1 x 10^-5M. The inhibitory effect, expressed as percent relaxation, was determined from the mean of two experiments twenty minutes after the addition of the compound being tested.
# as §1
# [4] = system: arterial actin-myosin interactions; assay: Inhibition of superprecipitation (antagonism of actin-myosin interaction), Silver et al.; type: biochemical; details: six minute time-point
# Description: . The data reported herein was obtained at a six minute time-point rather than the 1.5, 5 and 12 minute time points indicated in the superprecipita- tion assay of the Silver et al paper.
# as §1
# [5] = system: isolated paced intact rabbit atria; assay: Cardiac depressant (negative inotropic) effect in isolated paced rabbit atria; details: Oryctolagus cuniculus; for IC25: read-out: IC25 (concentration which produces 25% inhibition of isometric force)
# Description: The potential for detrimental cardiac depressant (negative inotropic) effects of the compounds of this invention was assessed in isolated paced intact rabbit atria. […] Muscles (N=5-9/compound) were stimulated at a frequency of 3Hz with a WPI stimulator for a 60 minute equilibration period. Changes in isometric force were recorded as described for the aortic smooth muscle experiments, supra. […]
# [6] = dose 50mg/kg oral, at 1.5 hours
# [7] = compound 1 x 10^-5M, 100mM KCl contraction, 20 minutes after addition, mean of two experiments
# [8] = rabbit atria paced at 3Hz, 30°C, cumulative dosing
# [9] = dose 25mg/kg oral, at 1.5 hours
# [10] = dose 50mg/kg oral, at 1.5 hours, 50 mg/kg
# [11] = dose 50mg/kg oral, at 4 hours, 50 mg/kg
SMILES,inhibition at 100 µM [2],inhibition at 50 µM [2],"inhibition at 10 µM [3, 7]",Antag. of Actin-Myosin (percent inhibition of superprecipitation) ([4]; 100µM),Antag. of Actin-Myosin (percent inhibition of superprecipitation) ([4]; 50µM),also measured
"CCOC(=O)C1=C(C)NC(C)=C(C(=O)OC)C1c1cccc([N+](=O)[O-])c1 (stereo not shown) [nitrendipine, reference compound]",,,,,,"IC25 [5, 8]: 350 nM"
"CC1=C(C(=O)OCC(C)(C)Oc2ccccc2)C(c2c(F)c(F)c(F)c(F)c2F)C2=C(CNCC2=O)N1 (stereo not shown) [Example 20, 1,4,5,6,7,8-Hexahydro-2-methyl-5-oxo-4-(pentafluorophenyl)-1,7-naphthyridine-3-carboxylic acid 2-methyl-2-phenoxypropyl ester]",62%,,51%,67%,,"B.P. (systolic blood pressure reduction) [1, 9]: -64 mm"
"COc1ccc(CCN(C)CCCC(C#N)(c2ccc(OC)c(OC)c2)C(C)C)cc1OC (stereo not shown) [Verapamil, reference compound]",,,,,,IC25 [5]: 60 nM
"CO[C@H](COC(=O)C1=C(C)NC2=C(C(=O)CNC2)C1c1c(F)c(F)c(F)c(F)c1F)c1ccccc1 (single isomer, unassigned) [Example 8 Diastereomer B, 1,4,5,6,7,8-Hexahydro-2-methyl-5-oxo-4-(R or S-pentafluorophenyl)-1,7-naphthyridine-3-carboxylic acid(S)-2-methoxy-2-phenylethyl esters]",,,,64%,30%,"B.P. (systolic blood pressure reduction) [1, 10]: -28 mm; B.P. (systolic blood pressure reduction) [1, 11]: -67 mm; P.R. (percent relaxation of aortic tissue) ([3]; 10^-5M, Note: Muscles were pre-treated, 10 µM): 53%"
"CC1=C(C(=O)OCCOc2ccccc2)C(c2c(F)c(F)c(F)c(F)c2F)C2=C(CNCC2=O)N1 (single isomer, unassigned) [Example 4, (+ )-1,4,5,6,7,8-Hexahydro-2-methyl-5-oxo-4-(pentafluorophenyl)-1,7-naphthyridine-3-carboxylic acid 2-phenoxyethyl ester]",67%,37%,61%,71%,38%,"IC25 [5, 8]: 800 nM"
"NCCCCCCNS(=O)(=O)c1cccc2c(Cl)cccc12 [Example W-7, reference compound]",,,,,,inhibition at 10 µM ([5]; read-out: inhibition of isometric force): < 20%
"COC(=O)C1=C(C)NC(C)=C(C(=O)OC)C1c1ccccc1[N+](=O)[O-] [nifedipine, reference compound]",,,,,,IC25 [5]: 50 nM
"CC1=C(C(=O)OCCOc2ccccc2)C(c2c(F)ccc(F)c2F)C2=C(CNCC2=O)N1 (stereo not shown) [Example 16, 1,4,5,6,7,8-Hexahydro-2-methyl-5-oxo-4-(2,3,6-trifluorophenyl)-1,7-naphthyridine-3-carboxylic acid 2-phenoxyethyl ester]",28%,,63%,34%,,"B.P. (systolic blood pressure reduction) [1, 9]: -37 mm"
"CC1=C(C(=O)OCCOc2cccc(Cl)c2Cl)C(c2c(F)c(F)c(F)c(F)c2F)C2=C(CNCC2=O)N1 (stereo not shown) [Example 22, 1,4,5,6,7,8-Hexahydro-2-methyl-5-oxo-4-(pentafluorophenyl)-1,7-naphthyridine-3-carboxylic acid 2-(2,3-dichlorphenoxy)ethyl ester]",74 ± 2%,73 ± 1.5%,61%,78±1%,75±4%,"B.P. (systolic blood pressure reduction) [1, 9]: -37 mm; B.P. (systolic blood pressure reduction) ([1]; dose 25mg/kg oral, at 4 hours): -52 mm; inhibition at 10 µM ([2]; 10µM): 25%; inhibition at 25 µM [2]: 54 ± 2.5%; Antag. of Actin-Myosin (percent inhibition of superprecipitation) ([4]; 10µM): 30±3%; Antag. of Actin-Myosin (percent inhibition of superprecipitation) ([4]; 25µM): 54±3%"

# Now from value to compound, other results behind:
inhibition at 100 µM [2],inhibition at 50 µM [2],SMILES,"inhibition at 10 µM [3, 7]",Antag. of Actin-Myosin (percent inhibition of superprecipitation) ([4]; 100µM),Antag. of Actin-Myosin (percent inhibition of superprecipitation) ([4]; 50µM),also measured
48%,,"COC(COC(=O)C1=C(C)NC2=C(C(=O)CNC2)C1c1cccc(Cl)c1)c1ccccc1 (stereo not shown) [Example 11, 4-(3-Chloroahenyl)-1,4,5,6,7,8-hexahydro-2-methyl-5-oxo-1,7--naphthyridine-3-carboxylic acid. 2-methoxv-2-phenvlethvl ester]",31%,53%,,"B.P. (systolic blood pressure reduction) [1, 6]: -29 mm"
44%,,"COC(COC(=O)C1=C(C)NC2=C(C(=O)CNC2)C1c1c(F)cccc1Cl)c1ccccc1 (stereo not shown) [Example 9, 4-(2-Chloro-6-fluoroohenyl)-1,4,5,6,7,8-hexahydro-2-methyl-5-oxo-1,7-naphthyridine-3-carboxylic acid 2-methoxy-2-phenylethyl ester]",28%,40%,,"B.P. (systolic blood pressure reduction) [1, 6]: -37 mm; B.P. (systolic blood pressure reduction) ([1]; dose 50mg/kg oral, at 4 hours): -14 mm"
63%,28%,"CO[C@H](COC(=O)C1=C(C)NC2=C(C(=O)CNC2)C1c1c(F)c(F)c(F)c(F)c1F)c1ccccc1 (single isomer, unassigned) [Example 8 Diastereomer A, 1,4,5,6,7,8-Hexahydro-2-methyl-5-oxo-4-(R or S-pentafluorophenyl)-1,7-naphthyridine-3-carboxylic acid(S)-2-methoxy-2-phenylethyl esters]",,69%,28%,"B.P. (systolic blood pressure reduction) [1, 10]: -73 mm; B.P. (systolic blood pressure reduction) [1, 11]: -86 mm; inhibition at 10 µM ([3]; 10^-5M, Note: Muscles were pre-treated): 50%"
56%,18%,"CC1=C(C(=O)OCCOc2ccccc2)C(c2c(F)ccc(C)c2Cl)C2=C(CNCC2=O)N1 (stereo not shown) [Example 23, 4-(2-chloro-6-fluoro-3-methylphenyl)-1,4,5,6,7,8-hexahydro-2-methyl-5-oxo-1,7-naphthyridine-3-carboxylic acid 2-phenoxyethyl ester]",67%,62%,23%,"B.P. (systolic blood pressure reduction) [1, 9]: -22 mm; B.P. (systolic blood pressure reduction) ([1]; dose 25mg/kg oral, at 4 hours): -31 mm"
70 ± 3%,48 ± 2%,"COC(COC(=O)C1=C(C)NC2=C(C(=O)CNC2)C1c1c(F)c(F)c(F)c(F)c1F)c1ccccc1 (stereo not shown) [Example 5, 1,4,5,6,7,8-Hexahydro-2-methyl-5-oxo-4-(pentafluorophenyl)-1,7-naphthyridine-3-carboxylic acid 2-methoxy-2-phenylethyl ester]",71%,75±4%,50±5%,"inhibition at 25 µM [2]: 21 ± 3%; IC25 [5, 8]: 10000 nM; Antag. of Actin-Myosin (percent inhibition of superprecipitation) ([4]; 25µM): 20±5%"
68 ± 1%,50 ± 2%,"CC1=C(C(=O)OCCOc2ccccc2)C(c2c(F)ccc(Cl)c2Cl)C2=C(CNCC2=O)N1 (stereo not shown) [Example 24, 4-(2,3-Dichloro-6-fluorophenyl)-1,4,5,6,7,8-hexahydro-2-methyl-5-oxo-1,7-naphthyridine-3-carboxylic acid 2-phenoxyethyl ester]",65%,72±1%,54±3%,"inhibition at 25 µM [2]: 8 ± 2%; IC25 [5, 8]: 10000 nM; Antag. of Actin-Myosin (percent inhibition of superprecipitation) ([4]; 25µM): 9±2%"
